Measured values taken from patent publication US20160369115A1, “POLARIZING PLATE COMPOSITION, POLARIZING PLATE PROTECTIVE FILM, POLARIZER, POLARIZING PLATE, LIQUID CRYSTAL DISPLAY DEVICE, AND COMPOUND USED IN THE LIQUID CRYSTAL DISPLAY DEVICE” (FUJIFILM Corporation, priority 2014, published 2016).

Assay: Solubility of additive in water
Assay type: physicochemical
Conditions: amount of the additive dissolving in 100 ml of pure water at 25° C.
Procedure: The amount of the additive dissolving in 100 ml of pure water at 25° C. was measured and evaluated according to the following criteria.

Row | SMILES | Solubility in water
1 | COC(=O)Oc1[nH]c(=O)n(Cc2ccc(S(=O)(=O)[O-])cc2)c(=O)c1C=O.[Na+] [Example compound AAV] | A (Equal to or greater than 5 g)
2 | COC(=O)Oc1c(Cc2ccccc2)c(=O)n(CS(=O)(=O)[O-])n1C.[Na+] [Example compound AH] | A (Equal to or greater than 5 g)
3 | COC(=O)Oc1[nH]c(=O)n(CCCS(=O)(=O)[O-])c(=O)c1Cc1ccc(C=O)cc1.[Na+] [Example compound AAC] | A (Equal to or greater than 5 g)
4 | COC(=O)Oc1c(Cc2ccc(S(=O)(=O)[O-])cc2S(=O)(=O)[O-])c(=O)n(-c2ccccc2)c(=O)n1Cc1ccccc1.[Na+].[Na+] [Example compound B] | A (Equal to or greater than 5 g)
5 | COC(=O)Cc1c(Cc2ccc(S(=O)(=O)[O-])cc2S(=O)(=O)[O-])c(=O)[nH]c2ccccc12.[Na+].[Na+] [Example compound AJ] | A (Equal to or greater than 5 g)
6 | COC(=O)Oc1[nH]c(=O)n(Cc2ccc(F)c(F)c2)c(=O)c1Cc1ccc(S(=O)(=O)[O-])cc1S(=O)(=O)[O-].[Na+].[Na+] [Example compound AAS] | A (Equal to or greater than 5 g)
7 | O=C(Oc1c(Cc2ccccc2S(=O)(=O)[O-])c(=O)n(-c2ccccc2)c(=O)n1-c1ccccc1)OC1c2ccccc2-c2ccccc21.[Na+] [Example compound H] | B (Equal to or greater than 1 g and less than 5 g)
8 | CCOC(=O)Oc1c(Cc2ccccc2S(=O)(=O)[O-])c(=O)n(-c2ccccc2)c(=O)n1-c1ccccc1.[Na+] [Example compound D] | A (Equal to or greater than 5 g)
9 | O=C([O-])c1ccc(Cc2c(OCOCc3ccccc3)n(-c3ccccc3)c(=O)n(-c3ccccc3)c2=O)cc1.[Na+] [Example compound O] | B (Equal to or greater than 1 g and less than 5 g)
10 | CC(C)[Si](Oc1c(Cc2ccccc2)c(=O)n(CS(=O)(=O)[O-])c(=O)n1C)(C(C)C)C(C)C.[Na+] [Example compound L] | A (Equal to or greater than 5 g)
11 | O=C1NC(=O)N(Cc2ccccc2)C(=O)C1c1ccccc1 (stereo not drawn) [Organic acid 1, reference compound] | C (Less than 1 g.)
12 | CCO[Si](CCCNC(=O)OCCn1c(=O)[nH]c(OC(=O)OC)c(Cc2ccc(S(=O)(=O)[O-])cc2S(=O)(=O)[O-])c1=O)(OCC)OCC.[Na+].[Na+] [Example compound AAP] | A (Equal to or greater than 5 g)
13 | COC(=O)Oc1[nH]c(=O)n(Cc2ccc(B(O)O)cc2)c(=O)c1Cc1ccc(S(=O)(=O)[O-])cc1S(=O)(=O)[O-].[Na+].[Na+] [Example compound AAL] | A (Equal to or greater than 5 g)
14 | [Cl-].[Cl-].[Zn+2] [ZnCl2, reference compound] | A (Equal to or greater than 5 g)
15 | Nc1c(F)c(F)c(C(=O)O)c(F)c1F [Organic acid 2, reference compound] | B (Equal to or greater than 1 g and less than 5 g)
